This is an account of results in patent US20140056964A1, “GRANZYME B INHIBITOR COMPOSITIONS, METHODS AND USES FOR PROMOTING WOUND HEALING” (THE UNIVERSITY OF BRITISH COLUMBIA, priority 2010, published 2014).

“Also recorded” adds a separate entry of the source.

Experiment [1] deals with T1, purified human Granzyme B (Homo sapiens, UniProt P10144).
T1 construct: purchased Axxora, San Diego, Calif
Put plainly: proteoglycan cleavage assay (recombinant decorin, biglycan, betaglycan incubated with Granzyme B +/- inhibitor, SDS-PAGE). It counts as biochemical. The following applies: for Granzyme B cleavage of decorin: 24 h, 30 ul, Coomassie Blue stain. As to the method:
For ECM cleavage assays, Granzyme B and/or the inhibitor 3,4-dichloroisocoumarin (DCI), were incubated for 4 and 24 hours at room temperature, with decorin, biglycan or soluble betaglycan and visualized by Ponceau staining. Cleavage fragments were subjected to Edman degradation for cleavage site identification.
Proteoglycan cleavage assays. The recombinant human PGs, decorin (0.5 μg, Abnova, Walnut, Calif.), biglycan and betaglycan (1.5-5 ug, R&D Systems, Minneapolis, Minn.) were incubated at room temperature for 24 h with 25-500 nM purified human Granzyme B (Axxora, San Diego, Calif.), in 50 mM Tris buffer, pH 7.4. For inhibitor studies, Granzyme B was incubated in the presence or absence of 200 μM of the serine protease inhibitor 3,4-dichloroisocoumarin (DCI; Santa Cruz Biotechnology Inc, Santa Cruz, Calif.) or inhibitor solvent control, dimethyl sulfoxide (DMSO; Sigma-Aldrich, St Louis, Mo.) for 4 h or 24 h. After incubation, proteins were denatured, separated on a 10% SDS-polyacrylamide gel and transferred to a nitrocellulose membrane. Ponceau stain (Fisher Scientific, Waltham, Mass.) was used to detect cleavage fragments.
Samples were run on a 10% gel, imaged with Ponceau stain and scanned.
In this Example, incubations were performed at RT for 24 h in a total reaction volume of 30 ul. Samples were run on a 10% gel and imaged by Coomassic Blue stain. With reference to FIG. 17, the asterisk=full length protein.
Samples were run on a 10% gel, imaged with Ponceau stain and scanned. […] DMSO vehicle control was not included due to redundancy. Asterisk=full length protein; Arrow=cleavage fragments. Obstruction in Granzyme B/Betaglycan lane affecting first 2 cleavage fragments.

For experiment [2], the target named is T2, Granzyme B (Homo sapiens, UniProt P10144). The experiment is described as follows: continuous colorimetric Granzyme B inhibition assay with substrate Ac-IEPD-pNA. It counts as biochemical. Particulars: substrate Ac-IEPD-pNA 20 μM, 37° C., pNA release at 405 nm. The protocol: Small molecule libraries (ZINC—Irwin J J and Shoichet B K, 2005. J. Chem Inf Model 4591:177-182; NCI—Voigt, J. H. et al. J. Chem. Inf Comput. Sci. 2001, 41, 702-712) were screened in silico for candidate Granzyme B inhibitory compounds. Several candidate small molecule inhibitors were identified and subjected to an in vitro Granzyme B inhibition assay. More specifically, a continuous colormetric assay for Granzyme B activity was carried out with the substrate Ac-IEPD-pNA. Briefly, 8 ug/ml Granzyme B, 20 μM substrate, and increasing concentrations of the inhibitor of interest was incubated in a final reaction volume of 50 ul. The reaction buffer consisted of 50 mM HEPES pH 7.5, 10% sucrose, 0.1% CHAPS and 5 mM DTT and reactions were carried out at 37° C. pNA release and Granzyme B inhibition was monitored at 405 nm on a Tecan Safire microplate reader.
T2 sequence (P10144 21-247): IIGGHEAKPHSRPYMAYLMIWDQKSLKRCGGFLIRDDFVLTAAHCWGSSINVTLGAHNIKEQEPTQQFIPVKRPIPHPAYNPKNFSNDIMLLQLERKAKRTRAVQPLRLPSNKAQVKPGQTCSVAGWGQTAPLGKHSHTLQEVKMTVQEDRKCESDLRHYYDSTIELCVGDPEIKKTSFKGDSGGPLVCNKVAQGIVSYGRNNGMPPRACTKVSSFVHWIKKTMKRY
As detailed herein and as detailed in Tables A and B herein, candidate inhibitors, and IC50 concentration obtained from the inhibition assay are set out below.

Experiment [3] addresses T2, Granzyme B. The experiment is described as follows: fibronectin cleavage by Granzyme B +/- inhibitor. The experiment is classed as biochemical. The following applies: inhibitor at 3.12 nM. As to the method: As shown in FIGS. 21A and B herein, incubations as described herein were performed with fibronectin (FN) and Granzyme B, both in the absence of inhibitor Willoughby 20 and in the presence of inhibitor Willoughby 20. Compound Willoughby 20 inhibits Granzyme B cleavage of FN at 3.12 nM.

Experiment [4] addresses T2, Granzyme B. Put plainly: TGF-β release assay from proteoglycan/TGF-β complexes (Western blot of supernatants). It counts as biochemical. The following applies: for release of TGF-β from betaglycan/TGF-β complexes by Granzyme B: 20 ug/ml betaglycan, 10 ng TGF-β, 24 h at RT. As to the method: Cytokine release was assessed in supernatants using Western blotting. TGF-β release assays were carried out using a method similar to that previously described for the MMPs (Imai et al. 1997). Briefly, decorin, biglycan and betaglycan (15 μg/mL) were coated onto 48 well tissue culture plastic plates and allowed to incubate overnight at 4° C. in PBS, pH 7.4. After blocking with 1% bovine serum albumin, 20 ng of active TGF-β1 per well (Peprotech Inc, Rocky Hill, N.J.) was added in DPBS containing calcium and magnesium (#14040, Invitrogen, Carlsbad, Calif.) for 5 h at RT. Granzyme B, with or without DCI, was then added to the wells. After 24 h, supernatants were removed, denatured, and run on a 15% SDS-PAGE gel. Once transferred to a nitrocellulose membrane and blocked with 10% skim milk, the membrane was probed using a rat anti-human TGF-β1 antibody (1:200, BD Biosciences, Franklin Lakes, N.J.) and IRDye® 800 conjugated affinity purified anti-Rat IgG (1:3000, Rockland Inc, Gilbertsville, Pa.). Bands were imaged using the Odyssey Infrared Imaging System (LI-COR Biotechnology, Lincoln, Nebr.). In this Example, 20 ug/ml betaglycan was coated onto 48 well plates and incubated with 10 ng of TGF-β. Excess TGF-β was washed off the plate and betaglycan/TGF-β complexes were incubated with Granzyme B+/− inhibitors for 24 h at RT. Supernatants (containing released TGF-β) were collected and Western blotted for TGF-β. There is little non-specific dissociation of TGF-β into supernatants in the absence of Granzyme B (2; see FIG. 16). TGF-β is released by Granzyme B after 24 h of incubation (4; see FIG. 16).
(A western blot detects proteins with antibodies after separation by electrophoresis.)

For experiment [5], the target named is T2, Granzyme B. The experiment is described as follows: cleavage of endogenous HCASMC-derived ECM (fibronectin, decorin Western blot) by 100 nM Granzyme B +/- inhibitor. The experiment is classed as biochemical. The following applies: inhibitor at 150 μM. The protocol: More specifically, as it relates to FIG. 18, to synthesize endogenous ECM, human coronary artery smooth muscle cells were seeded in 6 well plates and incubated at confluency for 7 days in serum starvation media (SMGM+0.2% FBS). Cells were removed from the plates by incubation with 0.25M Ammonium Hydroxide for 20 min. This treatment removes cells while leaving the surrounding extracellular matrix intact. Subsequently, 100 nM Granzyme B and the inhibitor of interest were incubated on the endogenous ECM for 24 h. Supernatants from the plates (containing cleavage fragments) were run on an SDS-PAGE gel and Western blotted for fibronectin or decorin. DMSO solvent control was not included due to redundancy. Asterisk=full length protein; Arrow=cleavage fragments, star denotes full length. […] Cells were removed from the plates by incubation with 0.25M Ammonium Hydroxide for 20 min. This treatment removes cells while leaving the surrounding extracellular matrix intact. Subsequently, 100 nM Granzyme B and the inhibitor of interest were incubated on the endogenous ECM for 24 h. Supernatants from the plates (containing cleavage fragments) were run on to an SDS-PAGE gel and Western blotted for fibronectin or decorin. DMSO solvent control was not included due to redundancy. Asterisk=full length protein; Arrow=cleavage fragments, star denotes full length.

Experiment [6] relates to human coronary artery smooth muscle cells (HCASMC). The experiment is described as follows: Human coronary artery smooth muscle cell TGF-β bioavailability assay (SMAD-3 / Erk phosphorylation). The following applies: supernatants of betaglycan release assay (Granzyme B +/- DCI) on cells for 16 h. It counts as cell-based. The protocol:
To determine if the TGF-β released by Granzyme B was active, supernatants from the above release assay were incubated on human coronary artery smooth muscle cells (HCASMC) and SMAD/Erk activation was examined by Western blotting. For bioavailability assays, HCASMCs (Clonetics/Lonza, Walkersville, Md.) at passage 3-5 were seeded in 6 well plates in smooth muscle cell growth media (SmGM, Clonetics) +5% fetal bovine serum (FBS, Invitrogen) and grown to confluence. At this time, cells were quiesced by serum removal for 24 h, after which time 150 μl of release assay supernatants (as described above) or a 10 ng TGF-β positive control were added to the cells for 16 h. Cell lysates were assessed by SDS-PAGE/Western blotting for phosphorylated-Erk 1/2 (p-Erk1/2; 1:1000, Cell Signaling Technology, Danvers, Mass.), total Erk 1/2 (t-Erk1/2; 1:1000, Cell Signaling Technology), phosphorylated-SMAD3 (p-SMAD3; 1:2000, Epitomics, Burlingame, Calif.), total SMAD3 (t-SMAD3; 1:500, BD Biosciences) and the loading controls β-actin (1:5000, Sigma-Aldrich) or β-tubulin (1:3000, Millipore, Billerica, Mass.). Secondary IRDye® 800 conjugated antibodies (1:3000, Rockland Inc) were utilized and imaged with the Odyssey Infrared Imaging System (LI-COR Biotechnology). […]

T1 sequence (P10144 21-247): as above

As usually defined, the IC50 is the concentration at which inhibition is half-maximal. Take `Cc1ccc(NC(=O)/C(O)=C(/C(=O)/C=C/c2ccccc2)C2OC(=O)c3ccccc32)c(C)c1` (stereo not drawn) [ZINC05723787]: the “Granzyme B cleavage of betaglycan” value is recorded as “partially inhibits” in experiment [1] (inhibitor at 50 μM, RT, 4 h) and “completely” in experiment [1] (inhibitor at 100 μM, RT, 4 h). Moreover, in experiment [2], the half-maximal inhibitory concentration (IC50) was approximately 40 µM.

Regarding `CC[C@H](C)[C@H](NC(=O)Cc1csc2ccccc12)C(=O)N[C@H]1CCc2cccc3c2N(C1=O)[C@H](C(=O)NCc1c[nH]nn1)C3` [Willoughby 20, Azepino[3,2,1-hi]indole-2-carboxamide, 5-[[(2S,3S)-2-[(2-benzo[b]thien-3-ylacetyl)amino]-3-methyl-1-oxopentyl]amino]-1,2,4,5,6,7-hexahydro-4-oxo-N-(1H-1,2,3-triazol-5-ylmethyl)-, (2S,5S)-], the “Granzyme B cleavage of fibronectin (FN)” value in experiment [3] is “inhibits”. Moreover, the “Granzyme B cleavage of decorin” value is recorded as “Inhibits” in experiment [1] (RT) and “prevented” in experiment [1] (RT, listed as compound 20). Further, the “Granzyme B cleavage of betaglycan” value in experiment [1] (room temperature, 24 hours, 30 μl, Ponceau stain) is “inhibits”. Also, the “release of TGF-β from betaglycan/TGF-β complexes by Granzyme B” value in experiment [4] is “inhibited”. This compound registered an IC50 in experiment [2] of approximately 3.1 µM.

As to `CC(=O)c1ccc(NC(=O)/C(O)=C(\C(=O)/C=C\c2ccccc2)[C@@H]2OC(=O)c3ccccc32)cc1` [ZINC05723764], the “decorin cleavage by Granzyme B” value in experiment [5] is “effective”. Besides, the “Granzyme B cleavage of betaglycan” value in experiment [1] (inhibitor at 100 μM, RT, 4 h) is recorded as “does not inhibit”. Moreover, in experiment [2], the IC50 was approximately 25 µM.

Take `CC(=O)c1ccccc1NC(=O)/C(O)=C(/C(=O)c1ccccc1-c1ccccc1)[C@@H]1OC(=O)c2ccccc21` [ZINC05723646]: in experiment [2], the IC50 was approximately 250 µM.

`CC(=O)CCC(=O)CC(=O)CCC(=O)Nc1cc(Cl)ccc1Cl` [ZINC05316859] came in with an IC50 in experiment [2] of approximately 250 µM.

As to `O=C(Nc1ccc(Cl)cc1Cl)/C(O)=C\C(=O)[C@@H]1CCOC1=O` (stereo in doubt) [ZINC05605947], in experiment [2], the IC50 is approximately 320 µM.

Consider `O=c1oc(Cl)c(Cl)c2ccccc12` [DCI, 3,4-dichloroisocoumarin], for which the “TGF-β signaling (SMAD-3 and Erk 1/2 phosphorylation) in HCASMC” value in experiment [6] is “limited TGF-β signaling”. The “Granzyme B-mediated cleavage of decorin, biglycan and betaglycan” value in experiment [1] (200 μM DCI, 4 h and 24 h, room temperature, Ponceau stain) is on record as “effectively inhibited”. In addition, the “release of TGF-β from betaglycan/TGF-β complexes by Granzyme B” value in experiment [4] is reported as “partially inhibited”. Also, in experiment [4] (24 h incubation, Western blot of supernatants), the “release of TGF-β from decorin, biglycan and betaglycan by Granzyme B” value was “not released; also recorded: inhibited; also recorded: no release evident”.

`COC(=O)CC/C(O)=C(/C(=O)CCC(=O)Nc1ccc(Cl)cc1Cl)C(=O)OC` [ZINC05317216] registered an IC50 in experiment [2] of approximately 50 µM.

`Cc1ccc(NC(=O)/C(O)=C(/C(=O)c2ccc3ccccc3c2)[C@@H]2OC(=O)c3ccccc32)cc1C` [ZINC05723503]: the IC50 in experiment [2] was approximately 270 µM.

With `CCOc1ccccc1NC(=O)/C(O)=C(/C(=O)c1ccc2ccccc2c1)[C@@H]1OC(=O)c2ccccc21` [ZINC05398428], the IC50 in experiment [2] is approximately 255 µM.

In experiment [2], `Cc1ccc(NC(=O)/C(O)=C(/C(=O)c2ccc3ccccc3c2)[C@H]2OC(=O)c3ccccc32)c(C)c1` (stereo in doubt) [ZINC05316154] yielded an IC50 of approximately 195 µM.

Regarding `O=C1CCC(=O)/C(=C(/O)CCC(=O)Nc2cccc(Cl)c2)C1` [ZINC05315460], the IC50 in experiment [2] is approximately 100 µM.
